In data set [1] the target is T1, human Y5 receptor (hNPY-5) (Homo sapiens, UniProt Q15761).
T1 construct: expressed in transfected cells; host or cells: mouse fibroblast LM(tk-) cells, e.g. L-hY5-7 (ATCC CRL-11995)
T1 sequence (Q15761 1-445): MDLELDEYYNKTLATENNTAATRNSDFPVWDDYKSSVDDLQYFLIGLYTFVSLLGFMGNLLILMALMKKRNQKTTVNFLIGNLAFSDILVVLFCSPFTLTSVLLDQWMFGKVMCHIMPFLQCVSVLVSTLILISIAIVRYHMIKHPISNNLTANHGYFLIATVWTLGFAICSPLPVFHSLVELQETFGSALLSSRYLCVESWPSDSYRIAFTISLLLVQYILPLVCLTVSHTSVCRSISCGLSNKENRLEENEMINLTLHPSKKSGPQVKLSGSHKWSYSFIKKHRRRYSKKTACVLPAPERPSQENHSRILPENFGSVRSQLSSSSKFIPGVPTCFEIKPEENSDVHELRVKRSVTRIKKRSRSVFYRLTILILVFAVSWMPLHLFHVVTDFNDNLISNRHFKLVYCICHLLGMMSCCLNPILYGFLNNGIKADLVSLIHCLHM
Nature of the data set: Radioligand binding to membranes, cloned human Y5 receptor. Put shortly: (§1)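 Competition binding on membranes from stably transfected 293 or LM(tk-) cells, with 0.08 nM ¹²⁵I-PYY in pH 7.4 HEPES buffer plus 0.1% BSA, 120 min at 30 °C, filtration and counting. Nonspecific binding defined by 300 nM human NPY, or 100 nM human PP for Y4; nonlinear regression.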

Data set [2] concerns the target hNPY-1,2,4 (human Y1, Y2, Y4 receptors). Nature of the data set: Radioligand binding to membranes, cloned human Y1, Y2 and Y4 receptors. The conditions noted are these: one bound given for all three. Put shortly:
as §1

The target of data set [3] is T2, human Y5 receptor (h NPY-5) (Homo sapiens, UniProt Q15761).
T2 construct: expressed in transfected cells; host or cells: mouse fibroblast LM(tk-) cells, e.g. L-hY5-7 (ATCC CRL-11995)
T2 sequence (Q15761 1-445): T1 sequence (Q15761 1-445)
The data set is described as follows: Functional assay: radioimmunoassay of cAMP. It counts as cell-based. The conditions noted are these: functional antagonism, forskolin-stimulated cAMP, cells stably transfected with human Y5. The method, then: LM(tk-) cells stably transfected with the human Y5 receptor were routinely converted from an adherent monolayer to a viable suspension. Adherent cells were harvested with trypsin at the point of confluence, resuspended in a minimal volume of complete DMEM for a cell count, and further diluted to a concentration of 10^6 cells/ml in suspension media (10% bovine calf serum, 10% 10× Medium 199 (Gibco), 9 mM NaHCO3, 25 mM glucose, 2 mM L-glutamine, 100 units/ml penicillin/100 μg/ml streptomycin, and 0.05% methyl cellulose). The cell suspension was maintained in a shaking incubator at 37° C., 5% CO2 for 24 hours. Membranes harvested from cells grown in this manner may be stored as large, uniform batches in liquid nitrogen. Alternatively, cells may be returned to adherent cell culture in complete DMEM by distribution into 96-well microtiter plates coated with poly-D-lysine (0.01 mg/ml) followed by incubation at 37° C., 5% CO2 for 24 hours. Cells prepared in this manner yielded a robust and reliable NPY-dependent response in cAMP radio-immunoassays as further described hereinbelow.
Stably transfected cells were seeded into 96-well microtiter plates and cultured until confluent. To reduce the potential for receptor desensitization, the serum component of the media was reduced to 1.5% for 4 to 16 hours before the assay. Cells were washed in Hank's buffered saline, or HBS (150 mM NaCl, 20 mM HEPES, 1 mM CaCl2, 5 mM KCl, 1 mM MgCl2, and 10 mM glucose) supplemented with 0.1% bovine serum albumin plus 5 mM theophylline and pre-equilibrated in the same solution for 20 min at 37° C. in 5% CO2. Cells were then incubated 5 min with 10 μM forskolin and various concentrations of receptor-selective ligands. The assay was terminated by the removal of HBS and acidification of the cells with 100 mM HCl. Intracellular cAMP was extracted and quantified with a modified version of a magnetic bead-based radioimmunoassay (Advanced Magnetics, Cambridge, Mass.). The final antigen/antibody complex was separated from free ^125I-cAMP by vacuum filtration through a PVDF filter in a microtiter plate (Millipore, Bedford, Mass.). Filters were punched and counted for ^125I in a Packard gamma counter. Binding data were analyzed using nonlinear regression and statistical techniques available in the GraphPAD Prism package (San Diego, Calif.).

Data set [4] concerns satiated rats. The following applies: direct injection into the hypothalamus, 4-hour period; cited from earlier work.
[5] abbreviates: binding Ki as repeated in Table 4, read-out: Ki (h NPY-5).
The mark [6] stands for this setting: cloned human NPY Y5 receptor, radioligand competition binding, Tables 1-3, read-out: Ki, nM hNPY-5.

Read-outs that look alike come from different tables or passages of the source.

The term Ki denotes the equilibrium dissociation constant of an inhibitor or competing ligand from its target. The term Kb denotes the equilibrium dissociation constant of an antagonist, usually derived from a functional assay. A low value points to a more potent antagonist. One may read the melting point as the temperature of the solid-liquid transition. Regarding `NS(=O)(=O)N[C@H]1CC[C@H](CNc2nc3c(s2)CCCc2ccc(F)cc2-3)CC1` [Example 44, trans-N2-(4-Aminosulfonylamino)cyclohexylmethyl-9-fluoro-5,6-dihydro-4H-benzo[6,7]cyclohepta[d][1,3]-thiazol-2-amine], the melting point was in the range of 180 to 182 °C. Also, the Ki in data set [1] (setting [5]) turned out to be 2.3 nM. The Ki in data set [1] (setting [6]) worked out at 2.3 nM. The Ki in data set [2] was over 10000 nM. Also, in data set [3], the Kb is 1.58 nM.
Turning to “NPY: peptide neurotransmitter neuropeptide Y, a 36 amino acid member of the pancreatic polypeptide family”, in data set [4], the “increase of food intake” value is recorded as “up to 10 fold”.
In the case of `O=S(=O)(NCCCCCNc1nc2c(s1)CCCc1ccc(F)cc1-2)c1cccc2ccccc12` [Example 4, 1-Aza-9-fluoro-4,5-dihydro-2-(5-(1-naphthyl)sulfonyl-amino)-pentylamino-3-thia-benzo[e]azulene], the Ki in data set [1] (setting [5]) was 19.5 nM; in data set [1] (setting [6]) it was 19.5 nM; in data set [2], over 10000 nM. Further, the Kb in data set [3] was 2.51 nM.
On to `O=S(=O)(NCCCCCNc1nc2c(s1)CCCc1ccc(F)cc1-2)c1ccccc1F` [Example 3, 1-Aza-9-fluoro-2-(5-(2-fluorophenyl)sulfonylamino)-pentylamino-4,5-dihydro-3-thia-benzo[e]azulene], for which the Ki in data set [1] (setting [5]) is 4.5 nM; in data set [1] (setting [6]), 4.5 nM; in data set [2], over 10000 nM. Besides, the Kb in data set [3] is 3.16 nM.
In turn, `CN(C)S(=O)(=O)NC[C@H]1CC[C@H](Nc2nc3c(s2)CCCc2ccc(F)cc2-3)CC1` [Example 1, trans-N2-(4-Dimethylaminosulfonylaminomethyl)-cyclohexyl-9-fluoro-5,6-dihydro-4H-benzo[6,7]-cyclohepta[d][1,3]-thiazol-2-amine] gave a melting point of 60 to 65 °C. Moreover, the Ki in data set [1] (setting [5]) was determined as 2.1 nM. In data set [1] (setting [6]), the Ki turned out to be 2.1 nM. Further, in data set [2], the Ki is over 10000 nM. For the same compound, the Kb in data set [3] is 12.6 nM.

These data come from patent US7273880B2, “Selective NPY (Y5) antagonists” (H. Lunbeck A/S, priority 1999, dated 2007).
